Data on 21 molecules can be found in US20250041310A1, “Combination Therapy Comprising A2A/A2B and PD-1/PD-L1 Inhibitors” (Incyte Corporation, priority 2020, published 2025).

Read-outs that look alike come from different tables or passages of the source.

The subject of assay [1] is PBMC from healthy donors stimulated by CD3 antibody. As to the kind of experiment: In vitro Mixed Lineage Reaction assay (MLR). The format is cell-based. The method, then:
On day 0, 10,000 PBMCs from a healthy donor was co-cultured with 10,000 γ-radiated PBMCs from another healthy donor. […] Cells were incubated at 37° C. for 4 days. IFN-γ in the supernatant of each well was measured by a HTRF kit (Cisbio, 62[…]) and the fluorescent signal was detected on a Pherastar FS plate reader (BMG Labtech) on day 4.

The target in assay [2] is Adenosine A2A Receptor (Homo sapiens (Human), UniProt P29274). Description: A2A Tag-lite HTRF Assay. The format is binding. As to conditions: Tag-lite A2A labeled cells, fluorescent ligand 12.5 nM; read-out: A2A_Ki.
Method: Test compounds were first serially diluted in DMSO and 100 nl added to the plate wells before the addition of other reaction components. The final concentration of DMSO was 1%. Tag-lite® Adenosine A2A labeled cells (CisBio C1TT1A2A) were diluted 1:5 into Tag-lite buffer (CisBio LABMED) and spun 1200 g for 5 mins.
Assay [3] deals with human adenosine A2B receptor (Homo sapiens (Human), UniProt P29275). Description: Adenosine A2B Receptor cyclic AMP GS Assay. The format is cell-based. The method, then: Stably transfected HEK-293 cells expressing the human adenosine A2B receptor (Perkin Elmer) were maintained in MEM culture medium with 10% FBS and 100 μg/ml Geneticin (Life Technologies). 18 to 24 hours prior to assay, geneticin was removed from culture. The cisbio cAMP-GS Dynamic kit utilizing the FRET (Fluorescence Resonance Energy Transfer) technology was used to measure cAMP accumulation in the cells. Compounds of the present disclosure at an appropriate concentration were mixed with 10000 cells/well in white 96 well half area plates (Perkin Elmer) for 30 min at RT gently shaking. […] Detection reagents, d2-labeled cAMP (acceptor) and anti-cAMP cryptate (donor) were added to each well for 60 min at RT gently shaking.

Setting [4] is: HEK-293 cells, agonist NECA 12 nM, read-out: A2B_cAMP_EC50.

Chain of human adenosine A2B receptor (P29275 whole entry): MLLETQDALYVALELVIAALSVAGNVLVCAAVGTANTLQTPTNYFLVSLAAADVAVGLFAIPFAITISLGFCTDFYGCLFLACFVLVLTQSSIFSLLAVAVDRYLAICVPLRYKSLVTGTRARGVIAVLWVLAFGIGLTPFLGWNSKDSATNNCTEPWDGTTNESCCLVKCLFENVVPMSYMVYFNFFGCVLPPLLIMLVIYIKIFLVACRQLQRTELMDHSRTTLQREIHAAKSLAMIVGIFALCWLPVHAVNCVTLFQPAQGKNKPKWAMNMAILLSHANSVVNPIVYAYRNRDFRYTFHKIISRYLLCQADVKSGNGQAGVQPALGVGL
Chain of Adenosine A2A Receptor (P29274 whole entry): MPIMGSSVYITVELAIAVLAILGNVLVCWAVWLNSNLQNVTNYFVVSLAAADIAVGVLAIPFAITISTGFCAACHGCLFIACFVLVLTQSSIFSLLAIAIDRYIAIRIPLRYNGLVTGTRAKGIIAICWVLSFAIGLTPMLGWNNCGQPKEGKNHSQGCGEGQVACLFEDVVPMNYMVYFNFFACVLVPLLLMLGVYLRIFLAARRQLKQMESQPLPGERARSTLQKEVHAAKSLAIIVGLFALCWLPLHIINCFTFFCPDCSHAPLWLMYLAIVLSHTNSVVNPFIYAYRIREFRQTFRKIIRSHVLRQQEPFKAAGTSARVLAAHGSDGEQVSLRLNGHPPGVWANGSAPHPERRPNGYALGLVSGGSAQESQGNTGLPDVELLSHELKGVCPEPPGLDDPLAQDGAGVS

In the case of `N#Cc1cccc(-c2nc(N)n3nc(Cn4nnc(-c5ccccn5)n4)nc3c2-c2ccncn2)c1` [Compound 3A, 3-(5-amino-2-((5-(pyridin-2-yl)-2H-tetrazol-2-yl)methyl)-8-(pyrimidin-4-yl)-[1,2,4]triazolo[1,5-c]pyrimidin-7-yl)benzonitrile], in assay [1] (PBMC stimulated with CD3 antibody, FIGS. 2A-2D), the “effect of combination with atezolizumab” value was “synergistic effect”. Also, the IFNγ production result in assay [1] (combined with anti-PD-L1 antibody atezolizumab, 1 μM NECA, CD3 antibody, 4 days) is reported as “increase IFNγ production significantly”. In the case of `CCCCCn1c2cc(-c3cnn(Cc4cnc5ccsc5c4)c3)[nH]c2c(=O)n2c(C)nnc12` [Compound 19, 3-Methyl-9-pentyl-7-(1-(thieno[3,2-b]pyridin-6-ylmethyl)-1H-pyrazol-4-yl)-6,9-dihydro-5H-pyrrolo[3,2-d][1,2,4]triazolo[4,3-a]pyrimidin-5-one], the Ki in assay [2] was under 10 nM. Take `CN1CCC(NCc2cccc(F)c2C(O)c2nc3cc(-c4cccc(C#N)c4F)nc(N)n3n2)C1=O` (stereo not shown) [Compound 8, 3-(5-Amino-2-((2-fluoro-6-(((1-methyl-2-oxopyrrolidin-3-yl)amino)methyl)phenyl)(hydroxy)methyl)-[1,2,4]triazolo[1,5-c]pyrimidin-7-yl)-2-fluorobenzonitrile]: the Ki in assay [2] is under 10 nM. As to `N#Cc1cccc(-c2nc(N)n3nc(Cc4ccccn4)nc3c2-c2ccncn2)c1` [Compound 1, 3-(5-Amino-2-(pyridin-2-ylmethyl)-8-(pyrimidin-4-yl)-[1,2,4]triazolo[1,5-c]pyrimidin-7-yl)benzonitrile], in assay [2], the Ki was under 10 nM.

For `N#Cc1cccc(-c2nc(N)n3nc(Cn4nnc(-n5cccn5)n4)nc3c2-c2ccncn2)c1` [Compound 21], in assay [2], the Ki is under 10 nM. Also, the EC50 in assay [3] (setting [4]) is under 10 nM.

As to `CCCCCn1c2cc(-c3cnn(Cc4cncc(C)c4)c3)[nH]c2c(=O)n2c(C)nnc12` [Compound 18, 3-Methyl-7-(1-((5-methylpyridin-3-yl)methyl)-1H-pyrazol-4-yl)-9-pentyl-6,9-dihydro-5H-pyrrolo[3,2-d][1,2,4]triazolo[4,3-a]pyrimidin-5-one], in assay [2], the Ki is under 10 nM. With `Cc1cccnc1COc1nc2c(-c3ccncn3)c(-c3cccc(C#N)c3)nc(N)n2n1` [Compound 4, 3-(5-Amino-2-((3-methylpyridin-2-yl)methoxy)-8-(pyrimidin-4-yl)-[1,2,4]triazolo[1,5-c]pyrimidin-7-yl)benzonitrile], the Ki in assay [2] is under 10 nM. Regarding `N#Cc1cccc(-c2cc3nc(C(O)c4c(F)cccc4F)nn3c(N)n2)c1F` (stereo not shown) [Compound 6, 3-(5-Amino-2-((2,6-difluorophenyl)(hydroxy)methyl)-[1,2,4]triazolo[1,5-c]pyrimidin-7-yl)-2-fluorobenzonitrile], in assay [2], the Ki was under 10 nM.

Take `Cc1ncoc1-c1c(-c2cccc(C#N)c2)nc(N)c2nc(C(N)c3c(F)cccc3F)nn12` (stereo not shown) [Compound 11, 3-(8-amino-2-(amino(2,6-difluorophenyl)methyl)-5-(4-methyloxazol-5-yl)-[1,2,4]triazolo[1,5-a]pyrazin-6-yl)benzonitrile]: the Ki in assay [2] is under 10 nM. With `Cc1cc(-c2c(-c3cccc(C#N)c3)nc(N)c3nc(C(O)c4c(F)cccc4F)nn23)cc(C)n1` (single isomer, unassigned) [Compound 12, 3-(8-amino-2-((2,6-difluorophenyl)(hydroxy)methyl)-5-(2,6-dimethylpyridin-4-yl)-[1,2,4]triazolo[1,5-a]pyrazin-6-yl)benzonitrile], in assay [2], the Ki is under 10 nM. The EC50 in assay [3] fell in the range of 10 to 100 nM.

On to `CCCCCn1c2cc(-c3cnn(Cc4cncc(Cl)c4)c3)[nH]c2c(=O)n2c(C)nnc12` [Compound 17, 7-(1-((5-Chloropyridin-3-yl)methyl)-1H-pyrazol-4-yl)-3-methyl-9-pentyl-6,9-dihydro-5H-pyrrolo[3,2-d][1,2,4]triazolo[4,3-a]pyrimidin-5-one], for which the Ki in assay [2] was under 10 nM. As for `N#Cc1cccc(-c2cc3nc(C(O)c4ccccc4)nn3c(N)n2)c1` (stereo not shown) [Compound 5, 3-(5-Amino-2-(hydroxy(phenyl)methyl)-[1,2,4]triazolo[1,5-c]pyrimidin-7-yl)benzonitrile], in assay [2], the Ki was under 10 nM. `N#Cc1cccc(-c2nc(N)c3nn(Cc4ncccc4F)nc3c2-c2ccncn2)c1` [Compound 14, 3-(4-amino-2-((3-fluoropyridin-2-yl)methyl)-7-(pyrimidin-4-yl)-2H-[1,2,3]triazolo[4,5-c]pyridin-6-yl)benzonitrile]: in assay [2], the Ki was under 10 nM. Besides, the EC50 in assay [3] (setting [4]) was under 10 nM. Take `N#Cc1cccc(-c2nc(N)c3nn(Cc4ncccc4F)nc3c2-c2ccncc2)c1` [Compound 15, 3-(4-amino-2-((3-fluoropyridin-2-yl)methyl)-7-(pyridin-4-yl)-2H-[1,2,3]triazolo[4,5-c]pyridin-6-yl)benzonitrile]: in assay [2], the Ki is under 10 nM. In addition, the EC50 in assay [3] (setting [4]) is under 10 nM. Regarding `CCCCCn1c2cc(-c3cnn(Cc4ccc5c(c4)CCN(C(=O)CN(C)C)C5)c3)[nH]c2c(=O)n2c(C)nnc12` [Compound 20, 7-(1-((2-(2-(Dimethylamino)acetyl)-1,2,3,4-tetrahydroisoquinolin-6-yl)methyl)-1H-pyrazol-4-yl)-3-methyl-9-pentyl-6,9-dihydro-5H-pyrrolo[3,2-d][1,2,4]triazolo[4,3-a]pyrimidin-5-one], the Ki in assay [2] is under 10 nM. In the case of `N#Cc1cccc(-c2nc(N)c3nn(Cc4ccccn4)nc3c2-c2ccncn2)c1` [Compound 13, 3-(4-amino-2-(pyridin-2-ylmethyl)-7-(pyrimidin-4-yl)-2H-[1,2,3]triazolo[4,5-c]pyridin-6-yl)benzonitrile], the Ki in assay [2] is under 10 nM. Also, in assay [3] (setting [4]), the EC50 is under 10 nM. Consider `N#Cc1cccc(-c2nc(N)c3nc(C(O)c4c(F)cccc4F)nn3c2-c2ccncn2)c1` (single isomer, unassigned) [Compound 10, 3-(8-Amino-2-((2,6-difluorophenyl)(hydroxy)methyl)-5-(pyrimidin-4-yl)-[1,2,4]triazolo[1,5-a]pyrazin-6-yl)benzonitrile], for which the Ki in assay [2] is under 10 nM. In addition, the EC50 in assay [3] is under 10 nM. Regarding `N#Cc1cccc(-c2nc(N)n3nc(C(O)c4c(F)cccc4F)nc3c2-c2ccncn2)c1` (stereo not shown) [Compound 2, 3-(5-Amino-2-((2,6-difluorophenyl)(hydroxy)methyl)-8-(pyrimidin-4-yl)-[1,2,4]triazolo[1,5-c]pyrimidin-7-yl)benzonitrile], in assay [2], the Ki was under 10 nM. The EC50 in assay [3] (setting [4]) is under 10 nM.

With `N#Cc1cccc(-c2nc(N)n3nc(Cn4nnc(-c5ccccn5)n4)nc3c2-c2ccncn2)c1` [Compound 3], the Ki in assay [2] is under 10 nM. The EC50 in assay [3] (setting [4]) is under 10 nM. `Cn1nccc1-c1c(-c2cccc(C#N)c2F)nc(N)c2nn(Cc3ccccn3)nc12` [Compound 16, 3-(4-amino-7-(1-methyl-1H-pyrazol-5-yl)-2-(pyridin-2-ylmethyl)-2H-[1,2,3]triazolo[4,5-c]pyridin-6-yl)-2-fluorobenzonitrile]: the Ki in assay [2] was under 10 nM. In assay [3] (setting [4]), the EC50 is under 10 nM. As to `N#Cc1cccc(-c2nc(N)n3nc(C(O)c4c(F)cccc4F)nc3c2C#N)c1F` (stereo not shown) [Compound 7, 5-Amino-7-(3-cyano-2-fluorophenyl)-2-((2,6-difluorophenyl)(hydroxy)methyl)-[1,2,4]triazolo[1,5-c]pyrimidine-8-carbonitrile], the Ki in assay [2] was under 10 nM.
